Molecular target: T1, human MMP-13 catalytic domain (hMMP-13CD) (Homo sapiens, UniProt P45452)
T1 construct: a human MMP-13 catalytic domain (“hMMP-13CD”)
Assay: Inhibition of MMP-13 catalytic domain (thiopeptolide substrate hydrolysis, IC50)
Format: biochemical
From the text: The assays measure the amount by which a test compound reduces the hydrolysis of a thiopeptolide substrate catalyzed by a matrix metalloproteinase enzyme. Such assays are described in detail by Ye et al., in Biochemistry, 1992;31(45):11231-11235, which is incorporated herein by reference. One such assay is described below in Biological Method 1.
Some of the particular methods described below use the catalytic domain of the MMP-13 enzyme, namely matrix metalloproteinase-13 catalytic domain (“MMP-13CD”), rather than the corresponding full-length enzyme, MMP-13. It has been shown previously by Ye Qi-Zhuang, Hupe D., and Johnson L. (Current Medicinal Chemistry, 1996;3:407-418) that inhibitor activity against a catalytic domain of an MMP is predictive of the inhibitor activity against the respective full-length MMP enzyme.
Thiopeptolide substrates show virtually no decomposition or hydrolysis at or below neutral pH in the absence of a matrix metalloproteinase enzyme. A typical thiopeptolide substrate commonly utilized for assays is Ac-Pro-Leu-Glythioester-Leu-Leu-Gly-OEt. […] The change in absorbance at 405 nm is monitored on a Thermo Max microplate reader (molecular Devices, Menlo Park, Calif.) at room temperature (22° C.). […]
Some representative compounds of Formula I have been evaluated for their ability to inhibit MMP-13. […]

IC50: > 50 µM
Compound: O=C(O)c1ccc(Cn2ccc3ccc(C#CCn4ccnn4)cc3c2=O)cc1 [4-[1-oxo-7-(3-[1,2,3]triazol-1-ylprop-1-ynyl)-1H-isoquinolin-2-ylmethyl]benzoic acid]
